Source: patent US20110093959A1, “CRYPTOTIS PARVA SCREENING MODEL FOR ANTIEMETIC POTENTIAL” (priority 2008, published 2011)

Tests used:
Format in all cases: in vivo, Cryptotis parva
[1] = tested on: LTC4-induced emesis in the Least Shrew; assay: CysLT1 antagonists against leukotriene LTC4-induced emesis; conditions: dose-dependent
Method: Emetic parameters were recorded for 30min post emetic injection.

[2] = tested on: SP-induced emesis in the Least Shrew; assay: Antagonist interaction study against SP (50 mg/kg, i.p.)-induced emesis; conditions: antagonist 10 mg/kg i.p., 30 min before SP 50 mg/kg i.p.
Source text: The present protocols were based upon preliminary studies as well as published findings in the Least Shrew. Darmani, 2001a; Darmani et al., 69 Pharmacol. Biochem. Behay. 239-49 (2001b). On the test day, the shrews were allowed to acclimate to the test laboratory for at least one hour prior to experimentation. To habituate the animals to the test environment, each shrew was randomly selected and transferred to a 20 cm×18 cm×21 cm clean clear plastic cage and offered four mealworms (Tenebrio sp.) 30 min prior to experimentation. […]
For the above drug interaction studies, different doses (i.p.) of either CP99,994 (0, 5, 10, and 20 mg/kg, n=10-14 shrews per group); L733060 (0, 5, 10, and 20 mg/kg, n=10-14 shrews per group), GR159897 (0 mg/kg and 20 mg/kg, n=8 per group) or SB218795 (0 or 20 mg/kg, n=7-8 per group) were administered to different groups of shrews 30 min prior to injection of an emetic dose (5 mg/kg, i.p.) of the NK1-receptor agonist GR73632. Emesis and scratchings were recorded for 30 min immediately following GR73632 administration as described above. […]
The data on the frequency of emesis and scratchings were analyzed by the Kruskal-Wallis (KW) nonparametric one-way analysis of variance (ANOVA) and post hoc analysis by Dunn's multiple comparisons test or Mann-Whitney test. […]

[3] = tested on: GR73632-induced emesis and scratching in the Least Shrew; assay: Antagonist interaction study against GR73632 (5 mg/kg, i.p.)-induced emesis and scratching
Source text: The present protocols were based upon preliminary studies as well as published findings in the Least Shrew. Darmani, 2001a; Darmani et al., 69 Pharmacol. Biochem. Behay. 239-49 (2001b). On the test day, the shrews were allowed to acclimate to the test laboratory for at least one hour prior to experimentation. To habituate the animals to the test environment, each shrew was randomly selected and transferred to a 20 cm×18 cm×21 cm clean clear plastic cage and offered four mealworms (Tenebrio sp.) 30 min prior to experimentation.
The latter doses of SP and GR73632 were chosen for subsequent antagonist interaction studies to pharmacologically characterize the role of NK1 receptors in the mediation of induced emesis by the use of: (1) two selective neurokinin NK1 receptor antagonists (CP99,994 and L733060) (Watson et al., 115 Br. J. Phramacol. 84-94 (1995); Guiard et al., 89 J. Neurochem. 54-63 (2004)); (2) an NK2 receptor antagonist (GR159897) (Beresford et al., 272 Eur. J. Pharmacol. 241-48 (1995)); and (3) an NK3 receptor antagonist (SB218795) (Salthun-Lassalle et al., 1995).
For the above drug interaction studies, different doses (i.p.) of either CP99,994 (0, 5, 10, and 20 mg/kg, n=10-14 shrews per group); L733060 (0, 5, 10, and 20 mg/kg, n=10-14 shrews per group), GR159897 (0 mg/kg and 20 mg/kg, n=8 per group) or SB218795 (0 or 20 mg/kg, n=7-8 per group) were administered to different groups of shrews 30 min prior to injection of an emetic dose (5 mg/kg, i.p.) of the NK1-receptor agonist GR73632. Emesis and scratchings were recorded for 30 min immediately following GR73632 administration as described above. The antiemetic effect of CP99,994 (0, 5, and 10 mg/kg, n=9-10 animals per group) was also investigated in a similar manner against SP (50 mg/kg, i.p.)-induced emesis.
The data on the frequency of emesis and scratchings were analyzed by the Kruskal-Wallis (KW) nonparametric one-way analysis of variance (ANOVA) and post hoc analysis by Dunn's multiple comparisons test or Mann-Whitney test. A P value of <0.05 was necessary to attain statistical significance. The incidence of emesis (number of shrews vomiting) was analyzed by the Fisher's exact test to determine whether there were differences between groups. When appropriate, pairwise comparisons were also made by this method. Two-way analysis of variance using the Kruskal-Wallis or Fisher's exact tests were initially utilized to respectively analyze the dose-response results of GR73632 on emesis and scratching behaviors, and percentage of shrews vomiting in saporin- and corresponding saline-pretreated control shrews. […] For some emesis data, the two-tailed Mann-Whitney test was used. The SP tissue concentration data were analyzed by a one-way ANOVA followed by Dunnett's t test as post hoc analysis. Fos-IR was quantified by counting immunopositive nuclei within each hemisection containing the region of interest (ROI). The number of nuclei was averaged across sections with the ROI for each animal, and the group mean and standard error obtained.

Compound	prevention of LTC4-induced emesis [1]	attenuation of the frequency of SP-induced emesis [2]	shrews protected from SP-induced emesis [2]	reduction in frequency of GR73632-induced emesis ([3]; antagonist 5 mg/kg i.p.)	reduction in percentage of shrews vomiting in response to GR73632 ([3]; antagonist 5 mg/kg i.p.)	reduction in frequency of GR73632-induced emesis ([3]; antagonist 10 mg/kg i.p.)	reduction in percentage of shrews vomiting in response to GR73632 ([3]; antagonist 10 mg/kg i.p.)	reduction in frequency of GR73632-induced emesis ([3]; antagonist 20 mg/kg i.p.)	reduction in percentage of shrews vomiting in response to GR73632 ([3]; antagonist 20 mg/kg i.p.)	reduction in the frequency of scratching ([3]; antagonist 5, 10, and 20 mg/kg, failed to attain significance)	onset of first emesis induced by GR73632 ([3]; at highest tested effective antiemetic doses)
O=C(Nc1cccc2c(=O)cc(-c3nnn[nH]3)oc12)c1ccc(OCCCCc2ccccc2)cc1 [Pranlucast, 4-Oxo-8-[(4-phenylbutoxy)benzoylamino]-2-(tetrazol-5-yl)-4H-1-benzopyran]	prevent LTC4-induced emesis completely										
COc1cc(C(=O)NS(=O)(=O)c2ccccc2C)ccc1Cc1cn(C)c2ccc(NC(=O)OC3CCCC3)cc12 [zafirlucast]	prevent LTC4-induced emesis completely										
COc1ccccc1CN[C@H]1CCCN[C@H]1c1ccccc1 (relative stereo) [CP99,994, (2S, 3S)-Cis-3 (2-methoxybenzylamino-2-phenylpiperidine)]		84%	70%	61%	2.9%	87%	60%	97%	73%	up to 49%	only delayed the onset of first emesis
